Among the data in article PMC6928863, “Development of Human Serum Albumin Selective Fluorescent Probe Using Thieno[3,2-b]pyridine-5(4H)-one Fluorophore Derivatives” (Sensors (Basel, Switzerland), 2019) are Kd values, retold here.

pKd: −log10 of the molar value.

For the test, the target named is T1, human serum albumin (HSA) (Homo sapiens, UniProt P02768).
T1 construct: gene ALB
In words: fluorescence titration (one-site fit), Job's plot […], site-marker displacement. It is filed as binding.

T1 sequence (P02768 25-609): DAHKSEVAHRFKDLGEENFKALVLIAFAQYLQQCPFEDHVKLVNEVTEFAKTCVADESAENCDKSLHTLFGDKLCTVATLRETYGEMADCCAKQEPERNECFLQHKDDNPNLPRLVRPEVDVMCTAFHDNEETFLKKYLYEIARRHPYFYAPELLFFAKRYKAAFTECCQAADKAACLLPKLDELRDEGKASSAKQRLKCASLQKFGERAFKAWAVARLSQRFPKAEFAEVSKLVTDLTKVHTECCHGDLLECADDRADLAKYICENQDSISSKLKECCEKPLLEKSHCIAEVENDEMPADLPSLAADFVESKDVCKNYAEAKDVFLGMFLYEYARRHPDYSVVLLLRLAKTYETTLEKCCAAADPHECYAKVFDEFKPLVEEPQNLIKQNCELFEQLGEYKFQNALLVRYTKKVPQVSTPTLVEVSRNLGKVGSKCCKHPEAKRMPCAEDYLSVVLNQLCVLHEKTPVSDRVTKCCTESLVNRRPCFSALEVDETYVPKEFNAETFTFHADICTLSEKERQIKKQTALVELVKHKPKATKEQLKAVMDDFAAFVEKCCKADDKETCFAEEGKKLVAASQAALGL

By pKd is commonly meant −log10 of the Kd, conventionally taken in molar units. A higher pKd goes with a low Kd. `CCN(CC)c1ccc(-c2cc3c(s2)c(C(=O)O)cc(=O)n3C)cc1` [compound 4, KF 4] showed a pKd of 5.27.
